Literature values as cited in patent US20130101569A1, “HAIR GROWTH STIMULANT” (priority 2011, published 2013).

How the values were obtained:
[1] = test system: healthy, older adults with mild memory complaints; settings: taken for six months; 485 subjects aged 55 and older
[2] = not carbohydrates

Row | Compound | heart rate [1] | memory and learning [1] | cravings for fat [2]
1 | CC/C=C\C/C=C\C/C=C\C/C=C\C/C=C\C/C=C\CCC(=O)O [algal DHA, 4Z,7Z,10Z,13Z,16Z,19Z)-docosa-4,7,10,13,16,19-hexaenoic acid] | decreased heart rate | improved memory and learning | 
2 | Chromium(III) picolinate [chromium picolinate] |  |  | reduce cravings for fat
